According to ChEMBL document CHEMBL4828703, “Structure-activity relationship study of THZ531 derivatives enables the discovery of BSJ-01-175 as a dual CDK12/13 covalent inhibitor with efficacy in Ewing sarcoma” (Eur J Med Chem, 2021):
Active and inactive are the calls of the source. The calls are words filed in the database; no cut-off is given here.

Experiments:
[1] = biological target: Cyclin-dependent kinase 13/Cyclin-K (Homo sapiens, UniProt Q14004); test: Inhibition of human recombinant CDK13/CyclinK assessed as reduction in substrate phosphorylation using His-c-Myc as substrate preincubated with enzyme for 5 mins followed by substrate addition for 15 mins in presence of [gamma 32P-ATP] by radioactive kinase assay; assay type: protein-complex assay
CDK12/Cyclin K = CDK12/Cyclin K (Homo sapiens, UniProt Q9NYV4); test: Inhibition of human recombinant CDK12/CyclinK assessed as reduction in substrate phosphorylation using His-c-Myc as substrate preincubated with enzyme for 5 mins followed by substrate addition for 15 mins in presence of [gamma 32P-ATP] by radioactive kinase assay; assay type: protein-complex assay
CDK9/cyclin T1 = CDK9/cyclin T1 (Homo sapiens, UniProt P50750); test: Inhibition of CDK9/Cyclin T1 (unknown origin); assay type: protein-complex assay
CDK2/Cyclin A2 = CDK2/Cyclin A2 (Homo sapiens, UniProt P24941); test: Inhibition of CDK2/Cyclin A (unknown origin); assay type: protein-complex assay
[2] = Metabolic stability in mouse liver microsomes assessed as half life; assay type: ADME, Microsome
[3] = biological target: Cyclin-dependent kinase 7/ cyclin H (Homo sapiens, UniProt P50613); test: Inhibition of CDK7/Cyclin H (unknown origin); assay type: protein-complex assay
[4] = Antiproliferative activity against human Kelly cells harboring CDK12 C1039F mutant assessed as reduction in cell viability incubated for 72 hrs by CellTiter-Glo assay; assay type: functional, cell-based
[5] = Antiproliferative activity against human Kelly cells harboring wild type CDK12 assessed as reduction in cell viability incubated for 72 hrs by CelTiter-Glo assay; assay type: functional, cell-based
[6] = Downregulation of RNA polymerase 2 CTD phosphorylation at Ser5 residue in human Jurkat cells at 1 uM incubated for 6 hrs by immunoblotting analysis; assay type: functional
[7] = biological target: Cyclin-dependent kinase 12/13 (Homo sapiens) (UniProt Q14004+Q9NYV4); test: Inhibition of CDK12/13 in human jurkat cells assessed as reduction in RNA polymerase 2 CTD phosphorylation at Ser2 residue at 1 uM measured after 6 hrs by immunoblotting analysis; assay type: cell-based
[8] = Downregulation of RNA polymerase 2 CTD phosphorylation at Ser7 residue in human Jurkat cells at 1 uM incubated for 6 hrs by immunoblotting analysis; assay type: functional
[9] = Downregulation of RNA polymerase 2 in human Jurkat cells at 1 uM measured after 6 hrs by immunoblotting analysis; assay type: functional
[10] = Antiproliferative activity against human TC71 cells assessed as reduction in cell viability; assay type: functional, cell-based; settings: TC-71
[11] = biological target: Cyclin-dependent kinase 7 (Homo sapiens) (UniProt P50613); test: Inhibition of THZ1-biotin binding from CDK7 in human Jurkat cells at 1 uM incubated for 6 hrs by CyclinH antibody based competitive pull down assay; assay type: cell-based
Cyclin-dependent kinase 7 (Homo sapiens), sequence (P50613 whole entry): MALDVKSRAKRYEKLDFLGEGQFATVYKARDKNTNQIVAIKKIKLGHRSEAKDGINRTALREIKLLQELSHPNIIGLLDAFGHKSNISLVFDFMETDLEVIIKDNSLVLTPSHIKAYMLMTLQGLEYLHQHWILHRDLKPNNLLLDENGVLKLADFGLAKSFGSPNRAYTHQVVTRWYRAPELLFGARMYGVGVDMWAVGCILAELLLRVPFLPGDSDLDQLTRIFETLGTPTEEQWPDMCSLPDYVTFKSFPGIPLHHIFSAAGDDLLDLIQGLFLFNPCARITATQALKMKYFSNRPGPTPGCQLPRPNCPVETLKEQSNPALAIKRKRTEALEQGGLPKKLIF

Cyclin-dependent kinase 13/Cyclin-K, sequence (Q14004 whole entry): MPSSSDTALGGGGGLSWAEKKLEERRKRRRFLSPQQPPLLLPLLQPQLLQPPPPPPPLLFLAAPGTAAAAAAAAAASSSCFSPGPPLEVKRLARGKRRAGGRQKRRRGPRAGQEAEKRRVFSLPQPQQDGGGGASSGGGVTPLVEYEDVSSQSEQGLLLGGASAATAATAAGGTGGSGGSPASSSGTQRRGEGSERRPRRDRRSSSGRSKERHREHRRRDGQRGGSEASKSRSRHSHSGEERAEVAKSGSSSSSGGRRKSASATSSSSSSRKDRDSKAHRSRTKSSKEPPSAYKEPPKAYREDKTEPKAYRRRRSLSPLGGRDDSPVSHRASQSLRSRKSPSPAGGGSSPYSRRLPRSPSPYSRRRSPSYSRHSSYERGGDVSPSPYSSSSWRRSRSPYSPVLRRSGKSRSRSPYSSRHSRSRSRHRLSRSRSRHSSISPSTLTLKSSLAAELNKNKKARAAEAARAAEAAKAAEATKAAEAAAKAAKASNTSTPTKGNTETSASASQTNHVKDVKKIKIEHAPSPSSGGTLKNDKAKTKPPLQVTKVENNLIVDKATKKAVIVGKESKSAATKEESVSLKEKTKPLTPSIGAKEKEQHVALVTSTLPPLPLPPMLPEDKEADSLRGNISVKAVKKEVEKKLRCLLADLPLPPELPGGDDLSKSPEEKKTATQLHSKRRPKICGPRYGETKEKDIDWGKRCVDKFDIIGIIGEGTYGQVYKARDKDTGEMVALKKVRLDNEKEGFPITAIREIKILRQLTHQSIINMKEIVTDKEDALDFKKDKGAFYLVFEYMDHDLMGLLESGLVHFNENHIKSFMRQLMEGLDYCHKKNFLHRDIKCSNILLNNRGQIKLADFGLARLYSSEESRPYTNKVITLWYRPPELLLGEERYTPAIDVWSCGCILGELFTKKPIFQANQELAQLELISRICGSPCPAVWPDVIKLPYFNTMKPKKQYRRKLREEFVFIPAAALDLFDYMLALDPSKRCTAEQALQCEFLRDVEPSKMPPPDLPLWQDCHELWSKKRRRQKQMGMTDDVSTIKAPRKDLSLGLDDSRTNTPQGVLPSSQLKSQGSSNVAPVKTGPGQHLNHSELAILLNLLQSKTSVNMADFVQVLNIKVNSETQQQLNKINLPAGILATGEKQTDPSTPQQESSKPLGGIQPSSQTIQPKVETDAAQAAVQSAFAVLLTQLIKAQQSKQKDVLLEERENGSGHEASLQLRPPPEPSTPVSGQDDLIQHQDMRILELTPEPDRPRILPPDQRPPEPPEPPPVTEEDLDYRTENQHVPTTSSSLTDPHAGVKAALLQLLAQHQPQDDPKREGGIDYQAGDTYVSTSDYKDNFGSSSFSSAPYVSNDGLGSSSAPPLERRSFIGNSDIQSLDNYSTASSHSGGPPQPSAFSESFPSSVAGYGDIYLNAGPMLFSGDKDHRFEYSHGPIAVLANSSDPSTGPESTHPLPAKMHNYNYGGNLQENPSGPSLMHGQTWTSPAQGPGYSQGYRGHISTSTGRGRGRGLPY
Cyclin-dependent kinase 13/Cyclin-K, sequence (O75909 whole entry, further chain): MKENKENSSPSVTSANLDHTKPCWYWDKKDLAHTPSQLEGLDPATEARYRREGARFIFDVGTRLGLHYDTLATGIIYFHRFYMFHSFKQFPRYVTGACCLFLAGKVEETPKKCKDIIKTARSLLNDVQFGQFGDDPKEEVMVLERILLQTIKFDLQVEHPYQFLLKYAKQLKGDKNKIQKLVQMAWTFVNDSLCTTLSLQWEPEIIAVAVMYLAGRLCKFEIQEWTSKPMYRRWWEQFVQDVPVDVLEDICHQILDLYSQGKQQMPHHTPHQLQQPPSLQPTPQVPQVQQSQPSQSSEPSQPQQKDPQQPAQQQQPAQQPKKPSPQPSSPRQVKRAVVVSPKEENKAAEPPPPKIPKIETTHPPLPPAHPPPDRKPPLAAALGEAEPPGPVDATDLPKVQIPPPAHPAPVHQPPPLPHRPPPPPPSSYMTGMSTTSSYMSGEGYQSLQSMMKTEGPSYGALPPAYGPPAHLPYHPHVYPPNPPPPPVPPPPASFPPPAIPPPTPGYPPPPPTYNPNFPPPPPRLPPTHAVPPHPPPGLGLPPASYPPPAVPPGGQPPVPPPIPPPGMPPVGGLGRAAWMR
Cyclin-dependent kinase 7/ cyclin H, sequence (P51946 whole entry): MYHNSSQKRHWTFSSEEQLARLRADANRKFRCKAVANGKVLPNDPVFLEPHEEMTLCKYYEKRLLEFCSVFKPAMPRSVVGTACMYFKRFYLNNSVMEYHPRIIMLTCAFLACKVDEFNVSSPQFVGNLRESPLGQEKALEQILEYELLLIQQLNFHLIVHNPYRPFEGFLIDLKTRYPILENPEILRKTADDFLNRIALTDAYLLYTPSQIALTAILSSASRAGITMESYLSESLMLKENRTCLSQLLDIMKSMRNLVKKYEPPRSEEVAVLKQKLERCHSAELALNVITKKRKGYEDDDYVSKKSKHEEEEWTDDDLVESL
Cyclin-dependent kinase 7/ cyclin H, sequence (P50613 whole entry): as the sequence (P50613 whole entry) above
CDK12/Cyclin K, sequence (O75909 whole entry): as the sequence (O75909 whole entry, further chain) above
CDK12/Cyclin K, sequence (Q9NYV4 whole entry): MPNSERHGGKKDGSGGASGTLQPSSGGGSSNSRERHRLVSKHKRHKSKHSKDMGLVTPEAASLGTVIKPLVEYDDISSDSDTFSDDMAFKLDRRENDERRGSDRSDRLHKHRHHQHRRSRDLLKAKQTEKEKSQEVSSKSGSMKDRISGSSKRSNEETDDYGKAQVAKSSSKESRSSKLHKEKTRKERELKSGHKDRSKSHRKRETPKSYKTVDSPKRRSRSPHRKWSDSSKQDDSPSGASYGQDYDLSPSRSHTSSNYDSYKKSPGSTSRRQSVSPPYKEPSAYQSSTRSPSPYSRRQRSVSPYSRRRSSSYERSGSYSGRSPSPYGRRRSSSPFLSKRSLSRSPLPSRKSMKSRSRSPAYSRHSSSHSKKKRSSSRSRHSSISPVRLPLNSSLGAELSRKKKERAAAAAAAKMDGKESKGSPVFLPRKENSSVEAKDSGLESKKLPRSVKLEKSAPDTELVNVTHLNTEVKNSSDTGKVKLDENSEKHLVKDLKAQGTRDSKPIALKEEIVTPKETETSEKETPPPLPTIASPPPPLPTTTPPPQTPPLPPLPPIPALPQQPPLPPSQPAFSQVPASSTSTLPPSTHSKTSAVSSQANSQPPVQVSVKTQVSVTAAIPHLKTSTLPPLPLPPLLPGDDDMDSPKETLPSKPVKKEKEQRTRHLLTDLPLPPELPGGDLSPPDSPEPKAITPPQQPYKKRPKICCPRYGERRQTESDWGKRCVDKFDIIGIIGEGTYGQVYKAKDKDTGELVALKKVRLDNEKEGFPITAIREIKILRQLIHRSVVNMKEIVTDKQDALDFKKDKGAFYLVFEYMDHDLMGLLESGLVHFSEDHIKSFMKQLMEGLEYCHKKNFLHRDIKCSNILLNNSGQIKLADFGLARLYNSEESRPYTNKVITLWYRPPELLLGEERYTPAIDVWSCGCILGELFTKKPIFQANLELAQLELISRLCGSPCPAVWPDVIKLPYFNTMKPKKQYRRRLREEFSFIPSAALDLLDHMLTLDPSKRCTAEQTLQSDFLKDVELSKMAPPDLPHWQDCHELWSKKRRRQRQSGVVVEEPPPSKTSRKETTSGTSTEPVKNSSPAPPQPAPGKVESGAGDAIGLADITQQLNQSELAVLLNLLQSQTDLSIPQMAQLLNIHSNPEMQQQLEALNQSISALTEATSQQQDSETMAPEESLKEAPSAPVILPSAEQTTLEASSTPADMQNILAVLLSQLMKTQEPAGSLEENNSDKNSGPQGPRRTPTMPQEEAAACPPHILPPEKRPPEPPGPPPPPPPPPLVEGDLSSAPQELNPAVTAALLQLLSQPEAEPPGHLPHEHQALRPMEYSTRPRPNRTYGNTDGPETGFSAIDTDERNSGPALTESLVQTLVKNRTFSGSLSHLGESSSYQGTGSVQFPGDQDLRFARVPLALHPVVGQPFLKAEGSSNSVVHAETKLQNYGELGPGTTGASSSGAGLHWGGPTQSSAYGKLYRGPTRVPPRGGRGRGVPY

SMILES	IC50 [1] [nM]	IC50 (CDK12/Cyclin K) [nM]	IC50 (CDK9/cyclin T1) [nM]	IC50 (CDK2/Cyclin A2) [nM]	IC50 [3] [nM]	other results
Nc1ccc(OC2CCC[C@@H](Nc3ncc(Cl)c(-c4cn(S(=O)(=O)c5ccccc5)c5ccccc45)n3)C2)cc1 (stereo partly specified)						t1/2 [2]: 5.4 min
CN(C)C/C=C/C(=O)Nc1ccc(C(=O)N2CCCC[C@@H](Nc3ncc(Cl)c(-c4c[nH]c5ccccc45)n3)C2)cc1	1830	1450	1220	339	388	
CN(C)C/C=C/C(=O)Nc1ccc(O[C@H]2CCC[C@@H](Nc3ncc(Cl)c(-c4c[nH]c5ccccc45)n3)C2)cc1	182	181	132	650	112	
CN(C)C/C=C/C(=O)Nc1ccc(C(=O)N2CCC[C@@H](Nc3ncc(C(F)(F)F)c(-c4c[nH]c5ccccc45)n3)C2)cc1	10000	> 10000	> 10000	10000	> 10000	
CN(C)C/C=C/C(=O)Nc1ccc(C(=O)N2CCC[C@@H](Nc3ncc(Cl)c(-c4c[nH]c5ccccc45)n3)C2)cc1	657	483	193	1300		IC50 [4]: 254 nM; IC50 [5]: 93 nM; inhibition at 1 µM [6]: 0%; inhibition [7]: 76%; inhibition at 1 µM [8]: 42%; inhibition at 1 µM [9]: 0%; IC50 [10]: 65.9 nM; inhibition [11]: Active
CN(C)C/C=C/C(=O)Nc1ccc(C(=O)N2CCC[C@@H](Nc3ncc(C4CC4)c(-c4c[nH]c5ccccc45)n3)C2)cc1	> 10000	9980	> 10000	> 10000	625	

Further lines, with some results ahead:

IC50 [1] [nM]	IC50 (CDK12/Cyclin K) [nM]	IC50 (CDK9/cyclin T1) [nM]	IC50 (CDK2/Cyclin A2) [nM]	IC50 [3] [nM]	SMILES	other results
484	857				CN(C)C/C=C/C(=O)Nc1ccc(O[C@@H]2CCC[C@@H](Nc3ncc(Cl)c(-c4c[nH]c5ccccc45)n3)C2)c(F)c1	
50.2	68.7	14.2	49.3		CN(C)C/C=C/C(=O)Nc1ccc(C(=O)N2CC[C@@H](Nc3ncc(Cl)c(-c4c[nH]c5ccccc45)n3)C2)cc1	
1640	765				CN(C)C/C=C/C(=O)Nc1ccc(C(=O)N2CCC[C@@H](Nc3ncc(Cl)c(-c4c[nH]c5ccccc45)n3)C2)nc1	
186	35.4				CN(C)C/C=C/C(=O)Nc1ccc(N2CCC[C@@H](Nc3ncc(Cl)c(-c4c[nH]c5ccccc45)n3)C2)nc1	
799	232				C=CC(=O)Nc1ccc(C(=O)N2CCC[C@@H](Nc3ncc(Cl)c(-c4c[nH]c5ccccc45)n3)C2)nc1	t1/2 [2]: 3.5 min
573	226	184	1000	115	CN(C)C/C=C/C(=O)Nc1ccc(C(=O)N2CCC[C@@H](Nc3ncc(Br)c(-c4c[nH]c5ccccc45)n3)C2)cc1	
178	167	155	623	69.5	CN(C)C/C=C/C(=O)Nc1ccc(N2CCC[C@@H](Nc3ncc(Cl)c(-c4c[nH]c5ccccc45)n3)C2)cc1	
